# Data reported in PubChem BioAssay AID2305 (GlaxoSmithKline (GSK), 2010).
# Where “and” joins values, the source holds several entries; their conditions need not be identical. Identical values can stand only once.
# Test system: P. falciparum 3D7 growth, pLDH absorbance
# Experiment: blood-stage malaria parasite growth potency – strain 3D7, dose response (AID 2305)
row,SMILES,IC50
1,COc1ccc(CN2CCCC(C(=O)c3ccc(C(F)(F)F)cc3)C2)c(O)c1 (stereo unspecified),850 nM
2,COc1ccccc1-c1csc(C(=O)NCC2CCN(Cc3ccc(C(C)(C)C)cc3)C2)c1 (stereo unspecified),1110 nM
3,CCCCc1ccc(-c2ccc3[nH]c(C)c(Br)c(=O)c3c2)cc1,110 nM
4,Cc1cnc(CN(Cc2ccc(-c3ccc(CNCCc4ccc(S(C)(=O)=O)cc4)cn3)cc2)C(=O)c2ccc([N+](=O)[O-])c(C)c2)cn1,920 nM
5,CC(Cl)=CCc1c(C)[nH]c2c(ccc3ccccc32)c1=O,200 nM
6,CCCC(C)Nc1nc(C)cc(N[C@@H](CC(C)C)C(=O)NCCc2ccccc2)n1 (stereo partly specified),1360 nM
7,CC(C)CC(C)NC(=O)C1Cc2c([nH]c3ccc(F)cc23)C2(CCN(Cc3ccccc3)CC2)N1 (stereo unspecified),970 nM
8,NC(N)=NC(=O)Nc1cc(Cl)c(Cl)c(Br)c1,610 nM
9,CN(C)CCCc1cc2c(cc1Cl)CCN2C(=O)Nc1ccc(-c2ccncc2)c2ccccc12,1180 nM
10,CN(C)CCNC(=O)NC1CN(c2ncnc3cc(-c4ccccc4)sc23)C1,580 nM
11,COc1ccccc1CNc1nc(Nc2ccccc2C)nc2ccccc12,810 nM
12,COc1ccc([N+](=O)[O-])cc1N(Cc1ccccc1-c1ccccc1)S(=O)(=O)c1ccc(C(F)(F)F)cc1,780 nM
13,COc1ccc2nccc([C@@H](O)CN3CCC(NCCOc4ccc(F)cc4Cl)CC3)c2c1,280 nM
14,COc1cccc(C=Cc2nc(=O)c3ccccc3o2)c1OC,60 nM
15,CCCCNC(=O)C(C)NC(=O)c1ccc(O)c(-c2ccc(Cl)c(Cl)c2)c1 (stereo unspecified),820 nM
16,CN1CCC(NC(=O)c2cccc(Nc3cc(Nc4cccc(Br)c4)ncn3)c2)CC1,1010 nM
17,CC(C)(CNCc1ccc(OC(F)(F)F)cc1)c1nc(-c2ccc(Cl)c(O)c2)c(-c2ccncc2)[nH]1,550 nM
18,CC(C)(C)c1ccc(-c2cc3c(ccc4nc(N)nc(N)c43)[nH]2)cc1,110 nM
19,Cc1cccc2[nH]c(-c3cccc(-c4cccc(NC(=O)c5cnccc5C(F)(F)F)c4)c3)nc12,660 nM
20,NC(=O)c1ccccc1Nc1nc(Nc2ccn[nH]2)ncc1Cl,960 nM
21,C=CC[C@H](C[C@H](O)[C@H](Cc1ccccc1)NC(=O)c1nn(-c2ccccc2)nc1C)C(=O)NC1CCCCC1,920 nM
22,NCCNS(=O)(=O)c1ccc(-c2ccnc3[nH]c(-c4ccncc4)cc23)cc1,840 nM
23,Cn1nc(-c2cccc(CN[C@@H]3CCc4ccc(O)cc43)c2)c2cnc(NCCCN3CCCC3)nc21,830 nM
24,O=C(Cc1ccc(Cl)cc1)NC1CCN(c2ccnc3cc(Cl)ccc23)C1 (stereo unspecified),230 nM

row,SMILES,IC50
1,O=C(/C=C/c1ccc(Cl)c(Cl)c1)NCCCCCN1CCC(c2c[nH]c3c(-c4ccccc4)cccc23)CC1,250 nM
2,CCOc1cc(Cl)c(C(C)NC(=O)c2ccccc2)cc1OCC (stereo unspecified),880 nM
3,Cc1nn(-c2ccccc2)c2c1C(c1ccc(C(C)C)cc1)N1C(=N2)N(Cc2ccccc2)c2ccccc21 (stereo unspecified),780 nM
4,CCc1nc2c(cnn2CC)c(NC2CCOCC2)c1CNC(=O)N1CCOCC1,890 nM
5,COc1ccc2nccc([C@@H](O)CN3CCC(NC(=O)c4cc5ccccc5[nH]4)CC3)c2c1,970 nM
6,CN(Cc1cccc(F)c1)C1CCN(c2cc(NC(=O)c3cccc(F)c3)ccn2)CC1,1160 nM
7,CCOC(C(=O)OCCN(C(C)C)C(C)C)(c1ccccc1)c1ccccc1,870 nM
8,Cc1ccc(C(=O)Nc2ccc(-c3nc4ccccc4[nH]3)cc2)cc1S(=O)(=O)N1CCOCC1,1210 nM
9,CCn1c(-c2nonc2N)nc2c(-c3ccccc3)ncc(OCCCCNCCc3ncc[nH]3)c21,850 nM
10,COc1ccc(-c2cccc(NC(=O)c3ccc(F)cc3)c2)cc1CNC(C)C,1380 nM
11,O=C(Nc1cccc(CN2CCCN(Cc3ccsc3)CC2)c1)c1cc2ccccc2s1,760 nM
12,COc1ccc2nccc([C@@H](O)CN3CCC(NCc4ccc5nnsc5c4)CC3)c2c1,710 nM
13,CCOC(=O)c1ccc(NC(=O)Nc2cccc(-c3cccc(-c4nc5c(C)cccc5[nH]4)c3)c2)cc1,110 nM
14,O=C(Nc1ccc(Cl)cc1)N(CC1C[C@H]2CC[C@@H](C1)N2Cc1ccc(C(F)(F)F)cc1)c1ccc(N2CCOCC2)c(F)c1 (stereo partly specified),1070 nM
15,CC(Cc1ccc(SC(C)(C)C)cc1)NCC(O)c1cccc(Cl)c1 (stereo unspecified),320 nM
16,CCc1c[nH]c2c(N3CCCCC3=O)cc(C(=O)N[C@@H](Cc3ccccc3)[C@H](O)CNCc3cccc(OC)c3)cc12,170 nM
17,CCc1cn2c3c(cc(C(=O)N[C@@H](Cc4ccccc4)[C@H](O)CNC(C)C)cc13)N(C)S(=O)(=O)C2,320 nM
18,Cc1cc(F)ccc1Nc1nc(N(C)c2ccccc2)c2cccc(OCCO)c2n1,800 nM
19,C=CCN(c1nc(NC)nc(NCc2c(OC)cccc2OC)n1)C1CCCC1,1460 nM
20,O=c1ccc2ccc(F)cc2n1CCN1CCC(NCc2ccc(-c3ccccn3)s2)CC1,890 nM
21,Cc1ccc(-n2c(C)nc3c(Nc4ccc(-c5ccncc5)cc4)ncnc32)c(C)c1,100 nM
22,CCOC(=O)c1c(CNc2ccncc2)n(C)c2cc(Br)c(OC(C)=O)cc12,370 nM
23,Cn1cc(C2CCN(CCCCNC(=O)c3ccc(C(=O)Nc4ccc(C#N)cc4)cc3)CC2)c2ccccc21,720 nM
24,COc1cccc(C23N=C(Nc4nc5ccccc5[nH]4)NC2(c2cccc(OC)c2)NC(Nc2nc4ccccc4[nH]2)=N3)c1 (stereo unspecified),160 nM

row,SMILES,IC50
1,CCc1cn2c3c(cc(C(=O)N[C@@H](Cc4cccc(F)c4)[C@H](O)CNC4CC4)cc13)N(C)S(=O)(=O)CC2,140 nM
2,CC(C)(C)OC(=O)NCC(=O)N(Cc1ccccc1)Cc1ccccc1,120 nM
3,CN1CCCN(Cc2ccc(-c3cccc(NC(=O)c4ccc(C#N)cc4)c3)cc2)CC1,740 nM
4,CCCNCc1ccc(-c2ccc(CN(CCOC)C(=O)CCc3ccc(OC)cc3)cc2)nc1,980 nM
5,Cc1cnc(C(=O)Nc2ccc3c(c2)CCCN(Cc2c[nH]c4cnccc24)C3)cn1,1230 nM
6,CN(CCCCCN1CCC(NC(=O)Nc2ccc(C(F)(F)F)cc2)C1)C(=O)/C=C/c1ccc(Cl)c(Cl)c1 (stereo unspecified),770 nM
7,CSc1ccc2ccccc2c1CCNCCCCNCCc1c(SC)ccc2ccccc12,410 nM
8,Cc1cc(N2CCCC2)nc(Nc2ccc(NC(=O)C3CCCC3)cc2)n1,1110 nM
9,O=C(Nc1cc(C(F)(F)F)ccc1N1CCOCC1)C(Cl)(Cl)Cl,370 nM
10,COc1ccc2nc(/C=C/c3cccc4ccc(C)nc34)[nH]c2c1,790 nM
11,O=C(NCc1ccco1)c1ccc(CN2CCN(C(c3ccccc3)c3ccccc3)CC2)cc1,790 nM
12,Cc1cc([N+](=O)[O-])ccc1N1CCN(CCCCNC(=O)c2ccc(NC(=O)c3ccc(Cl)cc3)cc2)CC1,890 nM
13,Cc1cc(N[C@@H](Cc2ccccc2)C(=O)NCCc2ccccc2)nc(NCCc2ccc(F)cc2)n1,660 nM
14,CCOC(=O)c1c[nH]c2c(ccc3ccccc32)c1=O,160 nM
15,c1ccc2c(Nc3ccc(Cc4ccc(Nc5c6ccccc6nc6ccccc56)cc4)cc3)c3ccccc3nc2c1,160 nM
16,COc1ccc(NC(=O)[C@H](Cc2ccccc2)Nc2cc(C)nc(NCCc3ccccc3)n2)cc1,1240 nM
17,Cc1cc(N[C@@H](CC(C)C)C(=O)NCc2cccc(F)c2)nc(NCCc2ccccc2)n1,1080 nM
18,O=C(Cc1ccc([N+](=O)[O-])cc1)N1CCc2cc3nccc(N4CCN5CCC[C@H]5C4)c3cc21,840 nM
19,NC1CCN(Cc2cccc(-c3ccc(-c4nc5ccccc5[nH]4)cc3)c2)C1 (stereo unspecified),830 nM
20,COc1ccc(S(=O)(=O)NCCCC2CCN(CCCCCNC(=O)C=Cc3ccc(Cl)c(Cl)c3)CC2)cc1,1040 nM
21,CC(=O)N1N=C(c2ccccc2)Sc2c1nc(-c1ccc(Cl)cc1)n2C(C)=O,990 nM
22,O=C1CCCN1CCCNCc1ccc(-c2ccc(-c3nc4ccc(F)cc4[nH]3)cc2)cc1,600 nM
23,O=C(Cn1c(SCc2cccc(F)c2F)cc(=O)c2ccccc21)N(CCN1CCCCC1)Cc1ccc(-c2ccc(C(F)(F)F)cc2)cc1,660 nM
24,O=C(C=Cc1ccc(-c2ccccc2)cc1)NC1CCC(CN2CCC(c3c[nH]c4ccccc34)CC2)CC1 (stereo unspecified),810 nM and 740 nM

row,SMILES,IC50
1,O=C(/C=C/c1ccc(Cl)c(Cl)c1)NCCCCCN1CCC(c2c[nH]c3cc(O)ccc23)CC1,750 nM
2,CC(C)CNCc1ccc(-c2cccc(-c3nc4ccccc4[nH]3)c2)cc1,630 nM
3,C=CCc1ccc(C2CCN(CCCCNC(=O)c3ccc(NC(=O)c4ccc(Cl)cc4)cc3)CC2)cc1,1120 nM
4,Nc1ccc(-c2ccc3ccnc(N)c3c2)cc1,680 nM
5,Cc1ccc(C)c(NC(=O)Nc2ccc(Nc3nc(C)cc(N4CCOCC4)n3)cc2)c1,980 nM
6,NCc1cccc(-c2ccccc2CNC2CCN(Cc3ccccc3)CC2)c1,770 nM
7,CCN(CC)CCCNc1ncc2c(-c3ccc(NC(=O)Nc4cc(C(F)(F)F)ccc4F)c(F)c3)nn(C)c2n1,270 nM
8,CN(C)C(=S)NN=Cc1cccc(O)c1O,870 nM
9,O=C(/C=C/c1ccc(Cl)c(Cl)c1)N1CCC(CN2CCC(Cc3c[nH]c4ccccc34)CC2)CC1,670 nM
10,CN1CCN(c2cc3c(cc2Cl)CCN3C(=O)Cc2ccc(Cl)c(NC(=O)Nc3cccc(C#N)c3)c2)CC1,640 nM
11,CNCCNCc1cccc(-c2ccc(-c3nc4ccc(C(F)(F)F)cc4[nH]3)cc2)c1,690 nM
12,Oc1ccc(CN2CCC(NCc3cccc(C(F)(F)F)c3)CC2)cc1,680 nM
13,O=C(Nc1nccs1)c1cn(-c2ccccc2)nc1-c1ccc(Cl)s1,970 nM
14,CN1CCN(CCCN(Cc2ccc(-c3ccc(CNCCc4ccccc4)cc3)cc2)C(=O)c2cccs2)CC1,1430 nM
15,O=C(Nc1ccc(-c2cccc(-c3nc4ccc(F)cc4[nH]3)c2)cc1)Nc1ccc(F)c(F)c1F,740 nM
16,CNCCNCc1ccc(-c2ccc(-c3nc4ccc(F)cc4[nH]3)s2)cc1,770 nM
17,CCC[C@@H]([C@@H](CC(C)C)C(=O)N[C@@H](CCCN=C(N)NS(C)(=O)=O)C(=O)Nc1nccs1)N(O)C=O,940 nM
18,COc1cc(OCCCN(C)Cc2ccc(OC)c(OC)c2)ccc1NC(=O)c1cccc2c(=O)c3cccc(F)c3[nH]c12,890 nM
19,Cc1nc2c(Nc3nc(-c4ccncc4)cs3)ncnc2n1-c1ccccc1Cl,180 nM
20,NC(=O)c1ccccc1Nc1nc(Nc2ccc(N3CCOCC3)cc2)ncc1[N+](=O)[O-],880 nM
21,CCn1c2ccccc2c2cc(C=NNc3cc(C)nc4ccccc34)ccc21,310 nM
22,Cc1nc2ccccc2n1C1C[C@H]2CC[C@@H](C1)N2Cc1nccn1-c1ccccc1 (stereo partly specified),370 nM
23,CCn1cc(C=C2Oc3c(ccc(O)c3CN3CCCCC3C)C2=O)c2ccccc21 (stereo unspecified),1020 nM
24,O=S(=O)(/C=C/c1ccccc1)N(Cc1ccc(-c2ccc(CNCCc3ccccn3)cc2)cc1)CC1CCCCN1 (stereo unspecified),740 nM
